Results as given in a melting point compilation (Tetko et al.; mined from patent text by program, amines drawn as free bases though some values may be those of a salt).

Row | Compound | melting point [°C]
1 | O=C(O)C1Oc2cc(Cl)c(S(=O)(=O)c3cccc(F)c3)cc2O1 (centres undefined) | 161 to 163
2 | CN(C)S(=O)(=O)c1cc(-n2c(=O)cc(C(F)(F)F)[nH]c2=O)ccc1Cl | 281 to 283
3 | COc1cccc(-n2c3c(c(=O)c4cccnc42)CCO3)c1 | 194 to 196
4 | Cc1c(CNCC2CCOCC2)n(C)c2c(F)c(NC(=O)c3ccc(OC[C@@H]4CCCO4)cc3)ccc12 | 132 to 134
5 | O=C(CC1CCCCC1)Nc1c(Cl)ccc2nc(N3CCC[C@@H](O)C3)ccc12 | 209 to 214
6 | CCCc1nc2c(C)ccnc2n1Cc1ccc(-c2ccccc2-c2nnn[nH]2)cc1 | 200 to 202
7 | COC(=O)c1[nH]c2c(C)ccc(C)c2c1[N+](=O)[O-] | 193 to 194
8 | COc1ccc(S(=O)(=O)n2ccc3ccnc(N(C)C)c32)cc1 | 155 to 158
9 | Cc1cc2c(c(C)c1C)C(c1ccc(C(C)C)cc1)CO2 (centres undefined) | 70 to 71
10 | O=C(NCc1ccccc1)c1cn2c(=O)n(Cc3ccc(Cl)cc3)c(=O)cc2s1 | > 220
11 | N[C@H]1CCN(c2ccc3c(NC(=O)CCc4ccccc4Cl)c(Cl)ccc3n2)C1 | 200 to 212
12 | O=C(O)C1CCc2[nH]c3cc(Cl)c(Cl)cc3c2C1 (centres undefined) | 243 to 244
13 | CC(=O)OC(C)(C)c1nnc(-c2ccc3occ(-c4cc(F)ccc4F)c3c2)o1 | 125 to 126
14 | CC(=O)N(CCP(=O)(O)O)Cc1cc([N+](=O)[O-])cc2[nH]c(=O)c(=O)[nH]c12 | 248
15 | Cc1c(-c2ccccc2)n(-c2ccccc2Cl)c(-c2ccccc2)cc1=S | 271 to 275
16 | C=Cc1c(F)c(F)cc2c(=O)c(C(=O)OCC)cn(C3CC3)c12 | 178 to 179
17 | O=C(Oc1ccccc1)Oc1c2c(nc3ccccc13)CCN(C(=O)Oc1ccccc1)CC2 | 232
18 | O=c1cc(N2CCOCC2)oc2ccc(-c3ccccc3)cc12 | 218 to 220
19 | CC(C)P1(=O)NCc2ccccc21 (centres undefined) | 149 to 151
20 | Cc1c(-c2ccccc2)oc(=O)n1C1CCN(CCc2ccccc2)CC1 | 144
21 | CCNc1nc2c(N)nc3ccccc3c2n1CC(C)C | 188 to 190
22 | O=C1CC(c2cccc(-n3ccnn3)c2)=Nc2ccc(-c3ccc(F)cc3)cc2N1 | 218 to 220
23 | CN(C)c1ccc(Cn2cnc3c(-c4ccco4)ncnc32)cc1 | 158 to 160
24 | C=CCOc1ccc(-c2ccc(C#N)cc2)cc1 | 68 to 69
25 | CS(=O)(=O)c1ccc(-c2[nH]c3ccccc3c2-c2ccc(Br)cc2)cc1 | 225 to 226

Row | Compound | melting point [°C]
26 | C[C@@H](Oc1ccc(-c2ccccc2)cc1)[C@H](O)CCc1cccnc1 | 98 to 99.5
27 | CN(C)C(=O)c1ccc(C(=O)O)c(S(=O)(=O)NC(C)(C)C)c1 | > 260
28 | CCN(CC)c1nc2cc(-c3ccccc3C#N)ccc2[nH]1 | 138 to 142
29 | CC(C)C[C@H](C(=O)O)N1CC[C@]2(CCCN2C(=O)C(C)C)C1=O | 68 to 69
30 | Cn1nc(N)nc1NCCCOc1cccc(CN2CCCC2)c1 | 95 to 95.5
31 | Nc1ccn(C2CCCO2)c(=O)n1 (centres undefined) | 193 to 195
32 | C=CCNC(=O)CN1CCN(Cc2ccc3c(c2)NC(=O)C(C)O3)CC1 (centres undefined) | 151 to 158
33 | Fc1ccc(C#Cc2ccnc(Cl)n2)cc1 | 125 to 126
34 | CCOc1nc2c(N)nc3cccnc3c2n1[C@@H](C)c1ccccc1 | 187 to 190
35 | O=C(Nc1ccc(N2CCCC2)cc1)N(C[C@H]1CC[C@H](CN(C(=O)Nc2ccc(N3CCCC3)cc2)C2CCCCC2)CC1)C1CCCCC1 | 149 to 152
36 | CCN(CC)C(=O)Nc1ccc(S(=O)(=O)n2c(=O)n(C3CCCCCC3)c3cc(Cl)ccc32)c(OC)c1 | 218
37 | CCOC(=O)c1cn(-c2nc(NC(C)C)c(F)cc2F)c2c(Cl)c(F)c(F)cc2c1=O | 206 to 209
38 | COc1nc2nc(S(=O)(=O)Cl)nn2cc1C | 154 to 157
39 | Cc1ccc2c(c1)C(=O)N(C)Cc1c(C(N)=NO)ncn1-2 | 227 to 229
40 | COc1ccc(CSCC(=O)NO)cc1 | 107
41 | COCC(=O)N(CC(C)=NOC)c1c(C)cccc1C | 56 to 57
42 | Cc1cc(Cl)cc(C)c1NC(=O)Oc1ccccc1 | 158 to 160
43 | CC(C(N)=O)c1ccc2c(c1Cl)C(=O)Cc1ccccc1S2 (centres undefined) | 180 to 181
44 | CCn1ncc(C(=O)c2ccc(S(C)(=O)=O)c(C3=NOCC3)c2C)c1OCC(=O)c1ccccc1 | 177 to 179
45 | COc1ccnc(CCc2nc3cc(-c4ccco4)cnc3[nH]2)c1 | 147 to 148
46 | COc1ccc2c(c1)C(NC(C)C)=C(C(N)=O)S2=O (centres undefined) | 194
47 | O=C1CC(c2ccc(O)cc2)Oc2cc(O)c(C3OC(CO)C(O)C(O)C3O)c(O)c21 (centres undefined) | 195 to 196
48 | Cc1cccc(C(=O)Nc2c[nH]nc2C(=O)NCCCOC(C)C)n1 | 169 to 170
49 | CCOC(=O)C(=O)Nc1cc(C#N)c(C(C)=O)cc1[N+](=O)[O-] | 142 to 144
50 | Cn1ncnc1COc1nc2c(cc1-c1cccc(F)c1)nnn2-c1ccccc1F | 143 to 145

Row | Compound | melting point [°C]
51 | CCCCc1nc2ccc(C(=O)OC)cc2n1Cc1ccc(-c2ccccc2-c2nnn[nH]2)cc1 | 224 to 225
52 | Cc1cc2c(s1)Oc1ccccc1N=C2N1CC2CCC(C1)N2C | 156 to 159
53 | COc1cc(C)nc(N=C=S)n1 | 54 to 55
54 | O=C1CCC(C(=O)N2CCN(C(=O)CN3CCOCC3)CC2)N1 (centres undefined) | 204 to 205
55 | O=C(Nc1ccc(C(=O)N2CCc3cn[nH]c3-c3sccc32)cc1)c1ccc(F)cc1Cl | 258 to 266
56 | CC1(C)CC(=O)c2c(OC3CCC3)sc(-c3cc[nH]n3)c2C1 | 202 to 204
57 | CCc1ccc(NCc2ccc(N(C)C)cc2)cc1 | 64 to 66
58 | COc1cc2c(cc1Nc1ncc(Cl)c(NC3(C(=O)NCC#N)CC3)n1)CCN(CC(=O)N(C)C)CC2 | 120 to 128
59 | CCOC(=O)c1c(C)c[nH]c1C | 74 to 76
60 | O=C(OCC(Cl)(Cl)Cl)N1C2CCC1CC(Sc1ccc(Cl)cc1)C2 (centres undefined) | 70 to 71.5
61 | CC(=O)Nc1ccc(C(C)=O)cn1 | 146 to 147
62 | CCOC(=O)C=Cc1cc([N+](=O)[O-])ccc1C | 44
63 | CC(C)(C)CC(C)(C)c1cc(N=Nc2cc(C#N)ccc2Cl)c(O)c(C(C)(C)c2ccccc2)c1 | 190 to 191
64 | Cc1nc(-c2ccc(Cl)cc2)n(-c2ccc(S(N)(=O)=O)cc2)n1 | 247 to 249
65 | COc1cc2ncc(C#N)c(Nc3ccc(CCO)cc3)c2cc1OC | 208 to 210
66 | CC(C(=O)O)c1ccc(C(=O)c2ccco2)cc1 (centres undefined) | 86 to 88
67 | Cn1cc2c(n1)Nc1ccc(Cl)cc1NC2=S | > 260
68 | COc1ccc(-c2ccc(C(=O)O)c(C(=O)O)c2)c2c1OCCO2 | 192 to 196
69 | Cn1cncc1C(N)(c1ccc(Cl)cc1)c1ccc2c(c1)C(c1cccc(Cl)c1)=NCc1nnnn1-2 (centres undefined) | 218
70 | COc1ccc(S(=O)(=O)n2ccc3ccnc(-c4ccc(Cl)cc4)c32)cc1 | 126 to 128
71 | O=C1COc2cc(F)c(N3C(=O)C4=C(CCCC4)C3=O)cc2N1Cc1ccccn1 | 188 to 190
72 | Cc1nc(C=Cc2nc3ccc(F)cc3c(=O)n2-c2ccccc2C)cs1 | 211 to 212
73 | N#CC(Cc1c[nH]cn1)(c1ccccc1)c1ccc(Cl)cc1Cl (centres undefined) | 215 to 218
74 | CCCCCCCCCCCCCCCCCCOC(=O)c1cccc(NC(=O)NS(=O)(=O)c2ccc(C)cc2)c1 | 96
75 | CCC(=CC(CNC(=O)c1cccnc1C)=NO)C(C)[N+](=O)[O-] (centres undefined) | 128 to 129

Row | Compound | melting point [°C]
76 | O=C(Cc1cccs1)Nc1n[nH]c2cc(Cl)ccc12 | 210
77 | CN(C)C(=O)C(C#N)=Cc1cc(O)c(O)c([N+](=O)[O-])c1 | 183 to 185
78 | O=c1cc(-c2ccc(OCCCCl)cc2)cn[nH]1 | 197 to 199
79 | CC(C)c1cc(S(=O)(=O)c2c(Br)cc(CCC(=O)O)cc2Br)ccc1O | 186 to 188
80 | Cn1nc(C(F)(F)F)c(C(O)=C(Br)n2ccc(-c3c(F)cccc3F)n2)c1Cl | 123 to 125
81 | CC(=O)OCCc1c([N+](=O)[O-])cc(OCc2ccccc2)c2ccccc12 | 82 to 87
82 | CCCCCCCCc1sc(NC(=O)c2cc3cc(C)cc(C)c3n2Cc2cccc(C(=O)O)c2)nc1-c1cc(OC)c(Cl)cc1OC | 195 to 197
83 | O=C(O)c1cnc2cc(C(F)(F)F)ccc2c1Cl | 310
84 | C=CCOC(=O)c1ccc(COC(=O)Nc2cnc(-c3ccccc3)n(CC(=O)NC(Cc3ccccc3)C(O)C(F)(F)F)c2=O)cc1 (centres undefined) | 126 to 135
85 | CCOC(=O)c1cccc(-c2nc(=O)c3ccccc3s2)n1 | 170 to 172
86 | Cc1ccc(C(=O)NC(Cc2cccc(Br)c2)C(=O)O)cc1 (centres undefined) | 196 to 197
87 | Cc1ccc(C)n1CCNC(=S)Nc1ccc(C(=O)O)cc1 | 174 to 175
88 | COc1cc(S(C)(=O)=O)ccc1-c1ccc(C#N)c(=O)[nH]1 | 280 to 282
89 | CC1=C(C(=O)O)C(C)(C)CCC1=O | 181 to 183
90 | Cc1c(-c2ccccc2)c(N2CC[C@H](N(C)C)C2)c2oc(C(C)(C)F)nc2c1C#N | 130 to 132
91 | Brc1nsc2nc3ccccc3n12 | 189 to 190
92 | O=CNc1ccc2c(c1)C(=O)CCC2 | 137 to 138
93 | C[C@H](CS)C(=O)N1C(C(=O)O)CCC1c1ccccc1 (some centres undefined) | 138 to 142
94 | CC(=O)C1CCC2C3CCC4CC(O)(Cc5ccccc5)CCC4(C)C3CCC12C (centres undefined) | 133 to 141
95 | CC1(C)C(=O)NC(=O)c2cc3nc(-c4ccncc4)[nH]c3cc21 | 218 to 221
96 | COc1ccc(Cl)cc1C(=O)NC1Cc2cc(S(=O)(=O)NC(=S)NC(C)C)c(OC)cc2OC1(C)C (centres undefined) | 201 to 202
97 | CCn1ncc2c3noc(-c4cccc(Cl)c4)c3cnc21 | 207 to 209
98 | CC(C)C1(C)N=C(c2ncc(C3OCCO3)cc2C(=O)O)NC1=O (centres undefined) | 156
99 | CCc1c(C(C)(C)C)cc(C(C)(C)C)c(O)c1C(=O)Nc1ccc(S(=O)(=O)C(F)(F)F)cc1Cl | 157 to 158
